Laboratory results taken from the NIST ThermoML archive (doi:10.1016/j.jct.2010.11.007).

Assay: xn = mol fraction of the nth substance listed
Settings: Liquid; for speed of sound: Sing-around technique in a fixed-path interferometer; for mass density: Vibrating tube method

C=CC(C)(O)CCC=C(C)C (stereo unspecified) [3,7-dimethyl-1,6-octadien-3-ol] + CCCO
Settings	mass density, 283.15 K [kg/m3]	mass density, 298.15 K [kg/m3]	mass density, 313.15 K [kg/m3]	mass density, 328.15 K [kg/m3]	speed of sound, 283.15 K [m/s]	speed of sound, 298.15 K [m/s]	speed of sound, 313.15 K [m/s]	speed of sound, 328.15 K [m/s]
101 kPa, x1 = 0.0533	–	–	–	–	–	–	1171.9	1121
101 kPa, x1 = 0.0551	819.82	807.92	795.75	783.12	1274.4	1222.4	–	–
101 kPa, x1 = 0.1051	826.23	814.32	802.06	789.69	1288.6	1236	1184.2	1132.6
101 kPa, x1 = 0.2014	836.56	824.59	812.16	799.39	1308.8	1255.7	1203.6	1151
101 kPa, x1 = 0.3032	–	832.73	–	807.41	–	–	–	–
101 kPa, x1 = 0.3049	845.01	–	820.4	–	1326.2	1272.1	1218	1165.3
101 kPa, x1 = 0.3869	850.24	838.05	825.47	–	–	1281.3	1227.7	–
101 kPa, x1 = 0.3946	–	–	–	–	1336.7	–	–	–
101 kPa, x1 = 0.3947	–	–	–	812.99	–	–	–	1174.8
101 kPa, x1 = 0.4923	855.58	843.28	830.75	–	–	–	–	–
101 kPa, x1 = 0.4925	–	–	–	817.72	–	–	–	–
101 kPa, x1 = 0.4951	–	–	–	–	1345.4	1290.3	1236.5	1183.1
101 kPa, x1 = 0.5905	859.44	–	834.56	–	–	–	–	–
101 kPa, x1 = 0.5917	–	847.16	–	821.54	1350.8	1295.7	1242.2	1189.7
101 kPa, x1 = 0.6818	–	–	–	824.42	–	–	–	–
101 kPa, x1 = 0.6847	–	–	–	–	1355.2	1301	1247.2	1193.6
101 kPa, x1 = 0.6895	862.58	–	837.72	–	–	–	–	–
101 kPa, x1 = 0.69	–	850.31	–	–	–	–	–	–
101 kPa, x1 = 0.7653	–	852.26	839.66	826.67	–	–	1250.9	1197
101 kPa, x1 = 0.7685	864.67	–	–	–	1359	1304.8	–	–
101 kPa, x1 = 0.8735	866.97	854.67	842.05	829.08	1364.2	1309.4	1255.2	1201.2
101 kPa, x1 = 0.9296	868.12	855.79	843.14	830.17	1366.3	1311.8	1258	1204.4
101 kPa, x1 = 1	869.39	857	844.29	831.31	1370.6	1315.1	1260.8	1207.6
20000 kPa, x1 = 0.0582	833.8	822.8	811.8	800.4	–	–	–	–
20000 kPa, x1 = 0.1037	839.4	828.4	817.4	806	–	–	–	–
20000 kPa, x1 = 0.1803	847.1	836.2	825.1	813.6	–	–	–	–
20000 kPa, x1 = 0.3087	857.5	846.3	834.9	823.4	–	–	–	–
20000 kPa, x1 = 0.4104	863.5	852.3	840.7	829.1	–	–	–	–
20000 kPa, x1 = 0.4994	867.6	856.4	844.9	833.2	–	–	–	–
20000 kPa, x1 = 0.5939	871.3	860	848.4	836.7	–	–	–	–
20000 kPa, x1 = 0.7117	875.1	863.7	852.2	840.5	–	–	–	–
20000 kPa, x1 = 0.7777	876.8	865.5	853.9	842.2	–	–	–	–
20000 kPa, x1 = 0.8566	878.5	867	855.5	843.8	–	–	–	–
20000 kPa, x1 = 0.9405	880.2	868.8	857.3	845.6	–	–	–	–
20000 kPa, x1 = 1	881.2	869.7	858.1	846.4	–	–	–	–
25000 kPa, x1 = 0.0582	837	826.1	815.4	804.3	–	–	–	–
25000 kPa, x1 = 0.1037	842.5	831.7	820.9	809.7	–	–	–	–
25000 kPa, x1 = 0.1803	850.1	839.3	828.4	817.1	–	–	–	–
25000 kPa, x1 = 0.3087	860.5	849.4	838.3	826.9	–	–	–	–
25000 kPa, x1 = 0.4104	866.4	855.4	844.1	832.7	–	–	–	–
25000 kPa, x1 = 0.4994	870.5	859.5	848.1	836.7	–	–	–	–
25000 kPa, x1 = 0.5939	874.2	863	851.7	840.2	–	–	–	–
25000 kPa, x1 = 0.7117	877.9	866.7	855.4	843.9	–	–	–	–
25000 kPa, x1 = 0.7777	879.6	868.5	857.1	845.6	–	–	–	–
25000 kPa, x1 = 0.8566	881.3	870	858.7	847.2	–	–	–	–
25000 kPa, x1 = 0.9405	883	871.8	860.4	848.9	–	–	–	–
25000 kPa, x1 = 1	884	872.7	861.3	849.8	–	–	–	–
30000 kPa, x1 = 0.0582	839.8	829.3	818.7	807.8	–	–	–	–
30000 kPa, x1 = 0.1037	845.3	834.9	824.3	813.3	–	–	–	–
30000 kPa, x1 = 0.1803	852.9	842.5	831.7	820.7	–	–	–	–
30000 kPa, x1 = 0.3087	863.2	852.5	841.5	830.4	–	–	–	–
30000 kPa, x1 = 0.4104	869.1	858.4	847.2	836	–	–	–	–
30000 kPa, x1 = 0.4994	873.2	862.4	851.2	840	–	–	–	–
30000 kPa, x1 = 0.5939	876.8	866	854.8	843.6	–	–	–	–
30000 kPa, x1 = 0.7117	880.6	869.7	858.5	847.2	–	–	–	–
30000 kPa, x1 = 0.7777	882.2	871.4	860.2	848.9	–	–	–	–
30000 kPa, x1 = 0.8566	883.9	872.9	861.7	850.4	–	–	–	–
30000 kPa, x1 = 0.9405	885.6	874.7	863.4	852.1	–	–	–	–
30000 kPa, x1 = 1	886.6	875.6	864.3	853	–	–	–	–
35000 kPa, x1 = 0.0582	842.8	832.4	822.1	811.3	–	–	–	–
35000 kPa, x1 = 0.1037	848.3	837.9	827.5	816.7	–	–	–	–
35000 kPa, x1 = 0.1803	855.7	845.4	834.8	823.9	–	–	–	–
35000 kPa, x1 = 0.3087	866	855.4	844.6	833.6	–	–	–	–
35000 kPa, x1 = 0.4104	871.9	861.2	850.4	839.3	–	–	–	–
35000 kPa, x1 = 0.4994	875.9	865.2	854.3	843.2	–	–	–	–
35000 kPa, x1 = 0.5939	879.4	868.7	857.8	846.7	–	–	–	–
35000 kPa, x1 = 0.7117	883.2	872.4	861.5	850.4	–	–	–	–
35000 kPa, x1 = 0.7777	884.9	874.1	863.2	852.1	–	–	–	–
35000 kPa, x1 = 0.8566	886.5	875.6	864.7	853.6	–	–	–	–
35000 kPa, x1 = 0.9405	888.2	877.3	866.4	855.2	–	–	–	–
35000 kPa, x1 = 1	889.2	878.3	867.3	856.2	–	–	–	–
40000 kPa, x1 = 0.0582	845.5	835.4	825.1	814.7	–	–	–	–
40000 kPa, x1 = 0.1037	851.1	840.9	830.7	820.1	–	–	–	–
40000 kPa, x1 = 0.1803	858.4	848.3	837.9	827.2	–	–	–	–
40000 kPa, x1 = 0.3087	868.6	858.3	847.7	836.9	–	–	–	–
40000 kPa, x1 = 0.4104	874.6	864	853.3	842.4	–	–	–	–
40000 kPa, x1 = 0.4994	878.5	867.9	857.3	846.4	–	–	–	–
40000 kPa, x1 = 0.5939	882.1	871.5	860.7	849.8	–	–	–	–
40000 kPa, x1 = 0.7117	885.9	875.1	864.4	853.5	–	–	–	–
40000 kPa, x1 = 0.7777	887.5	876.8	866.1	855.1	–	–	–	–
40000 kPa, x1 = 0.8566	889.1	878.3	867.6	856.6	–	–	–	–
40000 kPa, x1 = 0.9405	890.8	880	869.2	858.2	–	–	–	–
40000 kPa, x1 = 1	891.8	881	870.2	859.2	–	–	–	–
